One experiment deals with X4 or dual tropic HIV-1. The settings on record: peripheral blood mononuclear cells (PBMCs); cited from earlier work.
Another experiment has as its system HIV-1 R5 viruses. The settings on record: cited from earlier work.
The subject of another experiment is HIV-1 NL4-3. The experiment is described as follows: Anti-HIV assay: HIV-1 NL4-3 replication in MT4 cells. Type of experiment: cell-based. The settings on record: Human immunodeficiency virus 1, NL43, Lymphocyte, read-out: anti-HIV EC90.

This is an account of results in paper PMC3715147 (Journal of natural products, 2013).

In the case of `C=C(C)[C@@]12C[C@@H](COC(=O)c3ccccc3)[C@@]34OC5(O[C@@H]1[C@@H]3[C@@H]1O[C@]1(CO)[C@@H](O)[C@@]1(O)[C@H]4[C@H]([C@H](C)[C@@H]1OC(=O)c1ccccc1)[C@H](C)CCCCCC[C@H]5O)O2` [gnidimacrin], the “activity against X4 or dual tropic HIV-1 replication (in words)” value with X4 or dual tropic HIV-1 is “essentially inactive”. Moreover, the “inhibition of HIV-1 R5 viruses (in words)” value in the experiment with HIV-1 R5 viruses is on record as “potent inhibitor”.

Usually EC90 stands for the point of the concentration-response curve where the effect stands at 90%. Consider `CCCCC/C=C\CCC(=O)O[C@@]12[C@H](OC(=O)c3ccccc3)[C@@H](C)[C@@]3(O)[C@@H](C=C(CO)C[C@]4(O)C(=O)C(C)=C[C@@H]34)[C@@H]1C2(C)C` [Compound 3, stelleracin A], for which the EC90 in the experiment with HIV-1 NL4-3 was less than 1 nM.

Turning to `CCCCCCCC(=O)O[C@]12[C@H]([C@@H]3C=C(CO)C[C@]4(O)C(=O)C(C)=C[C@H]4[C@@]3(O)C[C@H]1OC(=O)c1ccccc1)C2(C)C` [Compound 2, 12-O-benzoylphorbol 13-octanoate], the EC90 with HIV-1 NL4-3 is less than 1 nM.

With `CCCCCCCCCC(=O)O[C@@]12[C@H](OC(=O)c3ccccc3)[C@@H](C)[C@@]3(O)[C@@H](C=C(CO)C[C@]4(O)C(=O)C(C)=C[C@@H]34)[C@@H]1C2(C)C` [Compound 1, stellerarin], the EC90 with HIV-1 NL4-3 was less than 1 nM.
